According to a melting point compilation (Tetko et al.; mined from patent text by program, amines drawn as free bases though some values may be those of a salt):

Row | melting point [°C] | Structure (SMILES)
1 | 203 to 205 | COc1ccccc1CC(=O)c1c(O)c2cccnc2n(-c2ccccc2)c1=O
2 | 152 to 154 | Cc1ccc(C(=O)c2ccc(CC(=O)O)n2C)s1
3 | 149 to 150 | N#CCCNC(=O)c1cccc(-c2cccc(Oc3cc(Cl)ccc3Cl)n2)c1
4 | 133 to 136 | COC(=O)c1c(C)cc2cc(OC)c(OC)cc2c1-c1ccnc(Cl)c1
5 | 122 to 123 | CCOC(=O)c1c(OC)c2cc(Cl)ccc2c(=O)n1C
6 | 151 to 153 | CC(=O)c1cc(Oc2ccccc2)c(NS(C)(=O)=O)cc1O
7 | 52.8 | C=CCc1cc(OCC(=O)OCC)ccc1O
8 | 100 to 102 | COc1c2c(nn1-c1ccc(Cl)cc1F)CCCC2
9 | 146 | CN1Cc2ccc(Cl)c3scc(c23)S1(=O)=O
10 | 118 to 119 | CCOC(=O)c1c(C)nc2scnc2c1N
11 | 94 to 95 | CC#CN1CCN(C(=O)c2ccccc2)CC1
12 | 146 to 147 | c1cc(-c2ccc3[nH]cc4c3c2C[C@@H](N(CC2CC2)CC2CC2)C4)on1
13 | 140 to 142 | CCOC(=O)c1cn(CC)c2sc(C)cc2c1=O
14 | 215 to 217 | CC(C)c1cc(-c2ccc(F)cc2)nc(O)n1
15 | 198 to 200 | CC(C)Cc1cc([N+](=O)[O-])c2c(c1O)C(=O)c1c(O)c(CC(C)C)cc([N+](=O)[O-])c1C2=O
16 | 103 to 105 | NC(=O)CC(c1cccc(F)c1)c1cccc(F)c1
17 | 186 to 187 | Nc1nc2ccccc2c2c1nc(CCCOc1ccccc1)n2CCCNC(=O)c1ccc(Br)cc1
18 | 108 to 110 | CC1(C)C(=O)N(c2ccc(C#N)c(C(F)(F)F)c2)C(=O)N1CC1OC1CN1C(=O)N(c2ccc(C#N)c(C(F)(F)F)c2)C(=O)C1(C)C (stereo unspecified)
19 | 68.3 to 70.6 | COc1ccc(-c2nn(CC(C)=O)c(=O)cc2-c2ccncc2)cc1
20 | 121 to 124 | CC(C)(C)OC(=O)N1CCC2(CC1)CC(CCc1ccccc1)=NO2
21 | 81 to 83 | CN(C)CC1CCCCN1C1c2ccccc2Oc2ccccc21 (stereo unspecified)
22 | 75 to 77 | C=CCO/N=C(/C(=O)OCC)c1ccc(OCCOc2ccc3ccccc3c2)s1
23 | 38 to 39 | Cc1ccccc1NO
24 | 100 to 101 | CCOC(=O)c1nn(-c2ccc(F)cc2)c2c1CCCC2
25 | 85 to 86 | CSc1nc(-c2ccc(N)cc2)c[nH]1

Row | melting point [°C] | Structure (SMILES)
26 | 143 to 145 | COC(=O)C(=O)c1ccc(OCCOc2ccc(-c3ccccc3)cc2)cc1
27 | 194 to 196 | Fc1ccc2nc[nH]c2c1
28 | 191 to 193 | O=[N+]([O-])c1cn2c(n1)OC[C@@H](OCc1ccc(Cl)nc1)C2
29 | 79 to 80 | COc1cc(O)c(C)c(C(=O)O)c1Br
30 | 139 to 141 | Clc1ccc(Nc2nnc(OCc3ccncc3)c3ccccc23)cc1
31 | 191 to 193 | Cc1nc(-c2cccnc2)sc1-c1ccnc(Nc2ccc(N3CCSCC3)cc2)n1
32 | 164 to 166 | O=C1NCCN1Cc1ccc(Cl)cc1
33 | 93 to 94 | CCOC(=O)C(C)(C)CCS(N)(=O)=O
34 | 193 to 195 | Cc1nc(N2CCN(C)CC2)ccc1N1CCCn2c1nc1c(Cl)ccc(C(OC(F)F)C(F)(F)F)c12 (stereo unspecified)
35 | 70 | CCOC(=Cc1ccc(-c2cccc(N(C)C(=O)NCCc3ccccc3)c2)cc1)C(=O)O
36 | 204 to 205 | CN(C)c1ncccc1NC(=NC#N)NC1(c2ccccc2)CCC1
37 | 48 to 50 | CC(C)[C@@H]1CC[C@@H](C)C[C@@]1(O)CO
38 | 230 to 233 | Cc1c(C(=O)Nc2ccc(N3CCC(N(CCO)CCO)CC3)c(C#N)c2)cnn1-c1ccc(Cl)cc1
39 | 59.5 to 60 | C=CCNC(=S)C(OC)c1ccccn1 (stereo unspecified)
40 | 166 to 168 | NC(=O)/C=C1\CC(O)c2ccc(F)cc21 (stereo unspecified)
41 | 228 to 230 | Cn1c2cc3ccccc3nc2c2c(Cl)cccc21
42 | 275 to 277 | CCCCNc1nc2c(C(=O)OCC)cnn2c2c1cnc1c2cnn1CC
43 | 246 to 247 | CCCC(=O)Nc1ccc2nc(S(N)(=O)=O)sc2c1
44 | 109 | N#Cc1ccc2c(c1)C(=O)CC2
45 | 128 | CCCCCn1c(C2=CC(=O)c3ccccc3C2=O)ccc1C1=CC(=O)c2ccccc2C1=O
46 | 111 to 112 | COCC(Oc1ccc(-n2c(C)nc3cc(C(F)(F)F)ccc32)cc1)C(=O)O (stereo unspecified)
47 | 123 to 125 | NS(=O)(=O)c1ccc(F)cc1
48 | 222 to 224 | CCC(=O)Nc1cccc2c1C(=O)N(C1(C)CCC(=O)NC1=O)C2=O (stereo unspecified)
49 | 76 to 76.5 | CCCCCCCCC(=O)Nc1ccc([N+](=O)[O-])cc1
50 | 109 to 110 | COc1ccc(S(=O)(=O)C[N+](=O)[O-])c2ccccc12

Row | melting point [°C] | Structure (SMILES)
51 | 71 to 72 | O=C(CCc1ccc(OCc2ccccc2)cc1)C(F)(F)F
52 | 264 to 265 | CC(=O)OCC1CCn2c(c(C3=C(c4c[nH]c5ccccc45)C(=O)NC3=O)c3ccccc32)C1 (stereo unspecified)
53 | 209 to 211 | CC(C(=O)O)n1nnc2ccc(Oc3nn(C)c(C(F)(F)F)c3Cl)cc21 (stereo unspecified)
54 | 118 to 120 | CC(O)(CCC#N)c1ccc(-c2ccc(F)cc2)cc1 (stereo unspecified)
55 | 214 to 232 | CN1CN(C)c2nc3n(Cc4ccc(F)cc4)c(=O)cc(O)n3c2C1=O
56 | 147 to 149 | O=C(O)CC1=C(c2ccccc2)c2ccccc2OC1
57 | 112 to 114 | CCOC(=O)C(CC)=C(C)NC(=O)Nc1cc(OC(C)C)c(Cl)cc1F
58 | 178 | CC(=O)Nc1cccc(Oc2ccn3nc(-c4ccccc4)c(-c4ccc(=O)n(C(C)C)n4)c3c2)c1
59 | 130 to 134 | CCCCOCCOc1ccc(-c2ccc3c(c2)C=C(C(=O)OC)CCN3C(=O)CNC(C)=O)cc1
60 | 209 to 211 | Cc1ccnc(Nc2nc(-c3cc(-c4ccc(Cl)cc4)no3)cs2)c1
61 | 118 to 120 | COC(=O)c1ccc(CN(C(C)C)S(=O)(=O)c2ccc(F)cc2)cc1
62 | 120 to 123 | Cc1c2n(c3ccc(Br)cc13)CCCC2O (stereo unspecified)
63 | 181 to 183 | CNC(=O)Nc1ccc(C2=NN(C(=O)NC)C(C)Cc3cc4c(cc32)OCO4)cc1 (stereo unspecified)
64 | 190 to 191 | CCOC(=O)N1C(=S)NC(C)=C(C(=O)OC)C1c1cccc(Cl)c1Cl (stereo unspecified)
65 | 250 to 252 | CC(=O)N1CCCCNC1=NC(c1ccccc1)c1ccccc1
66 | 92 to 95 | Cc1cc(C)c(OP(Oc2c(C)cc(C)cc2C)Oc2c(C)cc(C)cc2C)c(C)c1
67 | 280 to 282 | COc1ccc(Nc2cc(-c3ccncc3)nc3ccccc23)cc1Cl
68 | 145 to 146 | CCCCCCCCN(CCCCCCCC)C(=O)c1cc(C(C)(C)C)c(OC(=O)c2cc(C(C)(C)C)c(O)c(C(C)(C)C)c2)c(C(C)(C)C)c1
69 | 150 to 160 | CCCCCC(c1nccn1CC(=O)O)n1cnc2cc(-c3ccccc3-c3nn[nH]n3)ccc21 (stereo unspecified)
70 | 217 | Cc1cc2c(cc1-c1cc(-c3ccc(C(=O)O)cc3)ccc1-c1ccccc1)C(C)(C)CCC2(C)C
71 | 154 to 156 | Nn1c(-c2cncc(Cl)c2)cc2ccccc21
72 | 83 to 85 | COc1nc2ccc(Br)cc2cc1Cc1ccccc1
73 | 253 to 260 | O=C(O)[C@H]1NCC[C@@H](O)[C@@H]1O
74 | 91 to 93 | CCOC(=O)CCc1cc(-c2ccccc2)nn1Cc1ccc(Cl)cc1Cl
75 | 186 to 187 | Oc1ccc2oc(-c3cc(OCc4ccccc4)c(O)cc3-c3ccccc3)cc2c1

Row | melting point [°C] | Structure (SMILES)
76 | 188 to 192 | O=C(O)C1=Cc2cc(I)ccc2NC1C(F)(F)F (stereo unspecified)
77 | 79 | CCOC(=O)COc1ccc(C(=O)c2cccs2)c2ccccc12
78 | 219 to 220 | COC(=O)c1cc2cc(S(N)(=O)=O)sc2s1
79 | 120 to 122 | COC(=O)C1(CC#N)C(=O)N(C)C(=O)c2ccccc21 (stereo unspecified)
80 | 163 to 165 | CSc1c(Cl)c(O)nn1C
81 | 159 | COc1ccc2[nH]cc(CCCCN3CCN(c4ccc5oc(CO)cc5c4)CC3)c2c1
82 | 128 to 129 | CC(C)(C)COc1cccc(C[C@@H](NC(=O)c2cccc3c2C=CCCC3)[C@@H](O)c2cccc(Cl)c2)c1 (racemic)
83 | 243 to 245 | O=C1C(Br)=C(Br)C(=O)c2ncccc21
84 | 203 to 206 | NC(=O)N1CCC(Oc2ccc([N+](=O)[O-])cc2)(c2ccccc2)CC1
85 | 140 to 142 | CC(C)c1c(O)cc(/C=C/c2ccccc2)cc1O
86 | 152 to 155 | COC1=CCC2=C(CC[C@@H]3[C@@H]2CC[C@@]2(C)[C@H]3CCC23CC(O)CO3)C1 (stereo partly specified)
87 | 187 to 189 | Cc1ccc([C@@H]2c3c(C)c(NC(=O)Cc4ccc(C(F)(F)F)cc4)c(C)c(C)c3OC2(C)C)cc1
88 | 113 to 117 | CS(=O)(=O)NCCCCCCCCCCCCn1c2c(c3ccccc3c1=O)C(=O)c1ccccc1-2
89 | 180 | CCCOc1ncc(I)cc1C(=O)Nc1c(CC)nn(CCN2CCOCC2)c1C(N)=O
90 | 114 to 116 | CSCCSc1nc(C(C)(C)C)n[nH]1
91 | 125 to 127 | CCCCc1nn(-c2ccccc2C(F)(F)F)c(=O)n1Cc1ccc(-c2ccccc2S(=O)(=O)NC(=O)C(F)(F)F)cc1
92 | > 300 | Oc1nc2cc(Br)c3ccccc3c2nc1O
93 | 153 to 155 | CCO[C@@H](Cc1ccc(OCCc2nc(-c3ccc(C(F)(F)F)cc3)oc2C)c2ccccc12)C(=O)O
94 | 178 | Cc1nc2cnc3ccc(Cl)cc3c2n1-c1ccccc1Cl
95 | 201 | COc1ccc2ccc(NC(=O)c3ccco3)nc2n1
96 | 83 to 84 | Cc1ccc(C(CO)c2ccc(C(C)C)cc2)c(O)c1C (stereo unspecified)
97 | 143 to 145 | CCCCc1oc2ccccc2c1-c1ncc(-c2ccc3c(Br)c(OCc4ccc(C(=O)OC)cc4)ccc3c2)o1

Row | Structure (SMILES) | melting point [°C]
98 | C=CCN(CC=C)Cc1noc(-c2ncn3c2CN(C)C(=O)c2ccccc2-3)n1 | 203 to 205
99 | O=C(NCc1ccc(Cl)cc1)c1cn(CCN2CCCCC2)c2ccc(C#CCO)cc2c1=O | 176 to 180
100 | N#Cc1nn(-c2c(Cl)cc(C(F)(F)F)cc2Cl)cc1C=C(F)F | 75 to 77
101 | CCCCC/C=C\C/C=C\C/C=C\C/C=C\CCCC(=O)N[C@@H](C)C(=O)N[C@H](CCC(=O)O)C(=O)O | 90
